# Source: patent publication US9969710B2, “Heteroaryl compounds as IRAK inhibitors and uses thereof” (Merck Patent GmbH, priority 2015, dated 2018)
# Columns and labels:
# [1] = molecular target: T1, IRAK4 (Homo sapiens, UniProt Q9NWZ3); experiment: IRAK4 enzymatic assay (ADP-Glo luminescence); format: biochemical; settings: human recombinant His-TEV-IRAK4 (1-460), STK1-biotin peptide substrate
# T1 construct: His-TEV-IRAK4 (1-460); His (N); TEV cleavage site (N)
# T1 sequence (Q9NWZ3 1-460): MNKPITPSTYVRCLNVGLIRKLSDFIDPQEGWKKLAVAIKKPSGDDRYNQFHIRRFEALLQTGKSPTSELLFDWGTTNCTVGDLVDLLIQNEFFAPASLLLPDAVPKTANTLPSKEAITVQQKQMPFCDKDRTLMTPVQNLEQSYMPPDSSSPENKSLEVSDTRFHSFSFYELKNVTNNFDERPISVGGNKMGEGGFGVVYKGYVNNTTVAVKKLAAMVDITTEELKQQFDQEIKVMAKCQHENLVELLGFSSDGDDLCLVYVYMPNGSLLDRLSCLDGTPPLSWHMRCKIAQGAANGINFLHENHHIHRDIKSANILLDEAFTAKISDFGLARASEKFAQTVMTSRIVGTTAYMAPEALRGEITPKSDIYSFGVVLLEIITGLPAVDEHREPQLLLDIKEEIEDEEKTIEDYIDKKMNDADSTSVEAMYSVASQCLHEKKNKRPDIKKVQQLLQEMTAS
# Experimental: IRAK4 is a human purified recombinant enzyme (His-TEV-IRAK4 (1-460)).
# In this assay, IRAK4 hydrolyses ATP, autophosphorylates and phosphorylates a Serine/Threonine generic peptidic substrate (STK: 61ST1BLC from CisBio International). Measurement of IRAK-4 inhibition is performed in 384-well format based on a luminescence assay (ADP-Glo™ Kinase Assay from Promega). Purified human recombinant IRAK4 ([…]) and serial diluted compounds in DMSO (range of concentration from 10 μM to 0.5 nM) or controls (1% DMSO) are incubated for 15 minutes at RT in assay buffer containing 50 mM Hepes pH 7.0, Fatty acid-free BSA 0.1%, Dithiothreitol (DTT) 2 mM, MgCl2 10 mM, EGTA 0.5 mM, Triton X-100 0.01%, MnCl2 5 mM. The kinase reaction is then initiated by the addition of ATP ([…]) and the peptidic substrate STK1-biotin peptide (300 nM). After 2 hours of incubation at RT, the reaction is stopped and the unconsumed ATP depleted by the addition of ADP-Glo™ Reagent according to supplier instructions. After 40 minutes of incubation at RT, the Kinase Detection Reagent is then added to the assay plate according to supplier instructions. After 20 minutes of incubation at RT, the luminescence signal is measured with a plate-reading luminometer (PerkinElmer Envision or equivalent reader).
# [2] = system: TLR7 induced IL-6 secretion in human mononuclear cells (PBMC's); experiment: TLR7 induced IL-6 in human PBMC's; format: cell-based; settings: TLR7 specific ligand 2 uM overnight, IL-6 AlphaLISA
# Experimental: TLR7 Induced IL-6 in Human PBMC's
# Human PBMC assay was used as one of the functional assaya to monitor the activity of IRAK1 and IRAK4 small molecule inhibitors on TLR7 induced IL-6 secretion in human mononuclear cells (PBMC's). Human PBMCs were prepared from buffy coats (whole blood enriched with leukocytes and platelets) obtained from healthy volunteers used either fresh or frozen are plated in assay media (RPMI+2% P/S/L-glu+10% HI-FBS) and pre-treated with compounds in DMSO/media (range of concentrations from 25 uM to 0.4 nM) or controls (0.25% DMSO) for 30 minutes at 37° C. in assay media. Following pre-treatment with IRAK1 and IRAK4 inhibitors, PBMC's were stimulated with TLR7 specific ligand (2 uM) overnight (16-18 hrs) at 37° C. After incubation supernatant was transferred to 384 well PE AlphaPlate-384 (6005350) and IL-6 is quantified using Perkin Elmer IL-6 Alpha LISA kit (AL223C). Plates were read on an Envision® plate reader with Alpha Technology®.
# [3] = molecular target: T2, IRAK1 (Homo sapiens, UniProt P51617); experiment: IRAK1 enzymatic assay (ADP-Glo luminescence); format: biochemical; settings: human recombinant His-TEV-IRAK1 (194-712), ATP 1 μM; read-out: IRAK 1 IC50
# T2 construct: His-TEV-IRAK1 (194-712); His (N); TEV cleavage site (N)
# Experimental: IRAK1 is a human purified recombinant enzyme (His-TEV-IRAK1 (194-712))
# In this assay, IRAK1 hydrolyses ATP and autophosphorylates. Measurement of IRAK-1 inhibition is performed in 384-well format based on luminescence assay (ADP-Glo™ Kinase Assay from Promega). Purified human recombinant IRAK1 ([…]) and serial diluted compounds in DMSO (range of concentration from 10 μM to 0.5 nM) or controls (1% DMSO) are incubated for 15 minutes at RT in assay buffer containing 50 mM Hepes pH 7.0, Fatty acid-free BSA 0.1%, Dithiothreitol (DTT) 2 mM, MgCl2 10 mM, EGTA 0.5 mM, Triton X-100 0.01%. The kinase reaction is then initiated by the addition of ATP at a concentration of 1 μM. After 2 hours of incubation at RT, the reaction is stopped and the unconsumed ATP depleted by the addition of ADP-Glo™ Reagent according to supplier instructions. After 40 minutes of incubation at RT, the Kinase Detection Reagent is then added to the assay plate according to supplier instructions. After 20 minutes of incubation at RT, the luminescence signal is measured with a luminometer (PerkinElmer Envision or equivalent reader).
# T2 sequence (P51617 194-712): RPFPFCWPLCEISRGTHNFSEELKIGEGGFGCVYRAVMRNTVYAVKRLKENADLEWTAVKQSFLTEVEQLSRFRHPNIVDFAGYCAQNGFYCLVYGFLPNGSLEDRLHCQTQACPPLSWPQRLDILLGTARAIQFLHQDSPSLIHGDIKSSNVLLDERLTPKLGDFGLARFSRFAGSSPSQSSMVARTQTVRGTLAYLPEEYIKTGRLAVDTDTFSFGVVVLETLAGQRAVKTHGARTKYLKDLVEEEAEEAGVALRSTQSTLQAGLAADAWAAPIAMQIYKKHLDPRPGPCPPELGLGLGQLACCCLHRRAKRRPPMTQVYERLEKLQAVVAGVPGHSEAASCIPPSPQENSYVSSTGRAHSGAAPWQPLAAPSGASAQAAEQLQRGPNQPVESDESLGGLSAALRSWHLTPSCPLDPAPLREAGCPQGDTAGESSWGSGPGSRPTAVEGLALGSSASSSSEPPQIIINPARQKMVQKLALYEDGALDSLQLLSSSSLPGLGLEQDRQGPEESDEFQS
melting point [°C],IC50 [1] [µM],IC50 [3] [µM],SMILES,"IC50 ([2]; Homo sapiens, PBMC) [µM]",IC50 [2] [µM]
–,≤ 0.1,0.1 to 1,"CN1C(=O)CCC1(C)c1ccc2c(c1)nc(NC(=O)c1cccc(C(F)F)c1)n2CCCO (single isomer, unassigned) [Compound 31a]",1 to 10,–
–,≤ 0.1,0.1 to 1,"CN1C[C@H](c2ccc3c(c2)nc(NC(=O)c2cccc(C(F)(F)F)c2)n3CCCO)C(C)(C)C1=O [Compound 25b, N-[1-(3-hydroxypropyl)-5-[(3R)-1,4,4-trimethyl-5-oxopyrrolidin-3-yl]-1H-1,3-benzodiazol-2-yl]-3-(trifluoromethyl)benzamide]",0.1 to 1,–
–,≤ 0.1,0.1 to 1,"CN1CCC(c2ccc3c(c2)[nH]/c(=N\C(=O)c2cccc(C(F)(F)F)c2)n3CCC(O)CO)C1=O (single isomer, unassigned) [Compound 21c]",–,≤ 0.1
–,≤ 0.1,0.1 to 1,"CN1CC[C@@](C)(c2ccc3c(c2)nc(NC(=O)c2cccc(C(F)F)c2)n3CCCO)C1=O [Compound 30b, N-{5-[(3S)-1,3-dimethyl-2-oxopyrrolidin-3-yl]-1-(3-hydroxypropyl)-1H-1,3-benzodiazol-2-yl}-3-(diifluoromethyl)benzamide]",1 to 10,–
–,≤ 0.1,0.1 to 1,"CN1CCC(C)(c2ccc3c(c2)nc(NC(=O)c2cccc(C(F)(F)F)c2)n3CCCO)C1=O (single isomer, unassigned) [Compound 29b]",–,0.1 to 1
–,≤ 0.1,0.1 to 1,"CN1CCC(c2ccc3c(c2)[nH]/c(=N\C(=O)c2cccc(C(F)(F)F)c2)n3CC(O)CO)C1=O (single isomer, unassigned) [Compound 20a]",–,0.1 to 1

# The next lines start with the molecule.
SMILES,melting point [°C],IC50 [1] [µM],IC50 [3] [µM],"IC50 ([2]; Homo sapiens, PBMC) [µM]",IC50 [2] [µM]
"CN1CCC(C)(c2ccc3c(c2)nc(NC(=O)c2cccc(C(F)F)c2)n3CCCO)C1=O (stereo not drawn) [Compound 30, 3-Difluoromethyl-N-[5-(1,3-dimethyl-2-oxo-pyrrolidin-3-yl)-1-(3-hydroxy-propyl)-1H-benzoimidazol-2-yl]-benzamide]",78 to 81,≤ 0.1,–,1 to 10,–
"CN1CC(c2ccc3c(c2)nc(NC(=O)c2cccc(C(F)(F)F)c2)n3CCCO)C(C)(C)C1=O (stereo not drawn) [Compound 25, N-[1-(3-Hydroxy-propyl)-5-(1,4,4-trimethyl-5-oxo-pyrrolidin-3-yl)-1H-benzoimidazol-2-yl]-3-trifluoromethyl-benzamide]",104 to 106,≤ 0.1,≤ 0.1,0.1 to 1,–
"CN1C(=O)CCC1(C)c1ccc2c(c1)nc(NC(=O)c1cccc(C(F)(F)F)c1)n2CCCO (stereo not drawn) [Compound 32, N-[5-(1,2-Dimethyl-5-oxo-pyrrolidin-2-yl)-1-(3-hydroxy-propyl)-1H-benzoimidazol-2-yl]-3-trifluoromethyl-benzamide]",99 to 100,≤ 0.1,0.1 to 1,1 to 10,–
"CN1CCOC(c2ccc3c(c2)nc(NC(=O)c2cccc(C(F)F)c2)n3CC(C)(F)CO)C1=O (stereo not drawn) [Compound 26, 3-Difluoromethyl-N-[1-(2-fluoro-3-hydroxy-2-methyl-propyl)-5-(4-methyl-3-oxo-morpholin-2-yl)-1H-benzoimidazol-2-yl]-benzamide]",118 to 120,≤ 0.1,0.1 to 1,0.1 to 1,–
"CN1CCC(C)(c2ccc3c(c2)nc(NC(=O)c2cccc(C(F)(F)F)c2)n3CCCO)C1=O (stereo not drawn) [Compound 29, N-[5-(1,3-Dimethyl-2-oxo-pyrrolidin-3-yl)-1-(3-hydroxy-propyl)-1H-benzoimidazol-2-yl]-3-trifluoromethyl-benzamide]",72 to 74,≤ 0.1,1 to 10,–,–
"C=CCCn1/c(=N/C(=O)c2cccc(C(F)(F)F)c2)[nH]c2cc(C3CCN(C)C3=O)ccc21 (stereo not drawn) [Compound 17, N-[1-But-3-enyl-5-(1-methyl-2-oxo-pyrrolidin-3-yl)-1,3-dihydro-benzoimidazol-(2E)-ylidene]-3-trifluoromethyl-benzamide]",–,≤ 0.1,0.1 to 1,0.1 to 1,–
"CN1CCC[C@@H](c2ccc3c(c2)[nH]/c(=N\C(=O)c2cccc(C(F)(F)F)c2)n3CCCO)C1=O [Compound 1a, (S,E)-N-(1-(3-hydroxypropyl)-5-(1-methyl-2-oxopiperidin-3-yl)-1H-benzo[d]imidazol-2(3H)-ylidene)-3-(trifluoromethyl)benzamide]",–,≤ 0.1,≤ 0.1,≤ 0.1,–
"CN1CC(c2ccc3c(c2)[nH]/c(=N\C(=O)c2cccc(C(F)(F)F)c2)n3CCCO)CC1=O (stereo not drawn) [Compound 10, (E)-N-(1-(3-hydroxypropyl)-5-(1-methyl-5-oxopyrrolidin-3-yl)-1H-benzo[d]imidazol-2(3H)-ylidene)-3-(trifluoromethyl)benzamide]",–,≤ 0.1,0.1 to 1,0.1 to 1,–
"CN1CCC[C@H](c2ccc3c(c2)[nH]/c(=N\C(=O)c2cccc(C(F)F)c2)n3C[C@](C)(F)CO)C1=O (single isomer, unassigned) [Compound 3c]",–,≤ 0.1,0.1 to 1,≤ 0.1,–
"CC(=O)N1C2CCC1CC(c1ccc3c(c1)[nH]/c(=N\C(=O)c1cccc(C(F)(F)F)c1)n3CCCO)C2 (stereo not drawn) [Compound 15, (E)-N-(5-(8-acetyl-8-azabicyclo[3.2.1]octan-3-yl)-1-(3-hydroxypropyl)-1H-benzo[d]imidazol-2(3H)-ylidene)-3-(trifluoromethyl)benzamide]",–,≤ 0.1,≤ 0.1,≤ 0.1,–
"CN1CCCC(c2ccc3c(c2)[nH]/c(=N\C(=O)c2cccc(C(F)(F)F)c2)n3CCC(O)CO)C1=O (stereo not drawn) [Compound 22, N-[1-(3,4-Dihydroxy-butyl)-5-(1-methyl-2-oxo-piperidin-3-yl)-1,3-dihydro-benzoimidazol-(2E)-ylidene]-3-trifluoromethyl-benzamide]",–,≤ 0.1,0.1 to 1,≤ 0.1,–
"CN1CCC[C@@H](c2ccc3c(c2)[nH]/c(=N\C(=O)c2cccc(C(F)F)c2)n3C[C@@](C)(F)CO)C1=O [Compound 3d, 3-(difluoromethyl)-N-[(2E)-1-[(2R)-2-fluoro-3-hydroxy-2-methylpropyl]-5-[(3S)-1-methyl-2-oxopiperidin-3-yl]-2,3-dihydro-1H-1,3-benzodiazol-2-ylidene]benzamide]",–,≤ 0.1,≤ 0.1,≤ 0.1,–
